Assay results: publication PMC10305148, “In Vitro Characterization and Antiviral Susceptibility of Ophidian Serpentoviruses” (Microorganisms, 2023)
Converted amounts (≈) assume the structure as drawn. Where two headings read alike, the source gives them in different places.

How the values were obtained:
[1] = test system: pathogenic herpesvirus isolated from tortoises; design: method as in PMID 9323927; settings: doses of 25 or 50 µg/mL, turtle heart cell cultures; cited from earlier work
[2] = test system: Diamond python heart cells (DPHt); assay: Cytotoxicity in uninfected wells of the CPE assay; type: cell-based, Diamond python (Morelia spilota spilota)
Experimental: (§1) Diamond python heart cells (DPHt) were grown as described above. Cells were plated in 96-well microtiter plates and grown overnight prior to the addition of the virus and test compounds. A CPE assay was conducted to determine the activity of various antiviral against BPNV, GTSV, and AnPSN. Serial half-log dilutions of the test compounds were made and added to 5 wells of the 96-well plate. Culture media was added to two wells to determine the 50% cytotoxic concentration (CC50), and the virus was added to the other three wells to determine the 50% effective concentrations (EC50). Virus and cell controls were included with each plate. The selective index was determined by dividing the CC50 by the EC50/90 to determine the SI50/90. Two to three replicates of the assays were used to evaluate each compound. A confirmatory virus yield reduction (VYR) assay was conducted where supernatant from the CPE assay was collected and titered on DPHt cells to determine the 90% effective concentration (EC90), or the concentration of compound required to reduce the virus titer by one Log10.

GTSV [3] = assay: CPE reduction assay in DPHt cells; type: cell-based, Green tree python serpentovirus; settings: average ± SD; for EC50: read-out: EC50 (50% effective concentration, CPE reduction assay)
Description: (§2) Ribavirin was obtained from ICN Pharmaceuticals, Inc. (now Bausch Health, Laval, QC, Canada). Favipiravir was purchased from AdooQ Bioscience (Irvine, CA, USA). NITD-008 was supplied by BEI Resources (Manassas, VA, USA). Enviroximine was purchased from Cayman Chemical (Ann Arbor, MI, USA), and pirodavir was purchased from Med Chem Express (Monmouth Junction, NJ, USA). Infergen (Interferon-alfacon-1), a human consensus interferon, was provided by InterMune, Inc (Brisbane, CA, USA) as an aqueous solution. Solid compounds were dissolved in DMSO at a 20× concentration to yield a final DMSO concentration of <10%. Further dilutions were performed in culture media.
as §1, with “compound.” for “compound. A confirmatory virus yield reduction (VYR) assay was conducted where supernatant from the CPE assay was collected and titered on DPHt cells to determine the 90% effective concentration (EC90), or the concentration of compound required to reduce the virus titer by one Log10.”

BPNV [4] = assay: CPE reduction assay in DPHt cells; type: cell-based, Ball python nidovirus; settings: average ± SD; for EC50: Ball python nidovirus, read-out: EC50 (50% effective concentration, CPE reduction assay)
Description: as §2
as §1, with “compound.” for “compound. A confirmatory virus yield reduction (VYR) assay was conducted where supernatant from the CPE assay was collected and titered on DPHt cells to determine the 90% effective concentration (EC90), or the concentration of compound required to reduce the virus titer by one Log10.”

BPNV [5] = assay: Virus yield reduction (VYR) assay, supernatant titered on DPHt cells; type: cell-based, Ball python nidovirus; settings: for EC90: Ball python nidovirus, read-out: EC90 (90% effective concentration, virus yield reduction assay)
AnPSV [6] = assay: CPE reduction assay in DPHt cells; type: cell-based, Antaresian python serpentovirus; settings: average ± SD; for EC50: read-out: EC50 (50% effective concentration, CPE reduction assay)
Description: as §2
as §1, with “compound.” for “compound. A confirmatory virus yield reduction (VYR) assay was conducted where supernatant from the CPE assay was collected and titered on DPHt cells to determine the 90% effective concentration (EC90), or the concentration of compound required to reduce the virus titer by one Log10.”

AnPSV [7] = assay: Virus yield reduction (VYR) assay, supernatant titered on DPHt cells; type: cell-based, Antaresian python serpentovirus; settings: for EC90: read-out: EC90 (90% effective concentration, virus yield reduction assay)
AnPNV, BPNV, and GTSV = assay: CPE reduction assay, summary for all three serpentoviruses; type: cell-based, Ophidian serpentoviruses
Description: as §2, §1

[8] = design: method as in PMID 19918064; settings: dogs; development ceased; cited from earlier work
[9] = design: method as in PMID 19918064; settings: rats; development ceased; cited from earlier work
Dengue virus = test system: Dengue virus; design: method as in PMID 19918064; settings: animal models; cited from earlier work
GTSV [10] = assay: Virus yield reduction (VYR) assay, supernatant titered on DPHt cells; type: cell-based, Green tree python serpentovirus; settings: for EC90: read-out: EC90 (90% effective concentration, virus yield reduction assay)
[11] = Cytotoxicity in uninfected wells of the CPE assay; type: cell-based, Diamond python (Morelia spilota spilota); settings: Diamond python (Morelia spilota spilota), CC50 (50% cytotoxic concentration)
Experimental: as §1

[12] = design: method as in PMID 17168855; settings: long-term treatment; cited from earlier work
[13] = Diamond python (Morelia spilota spilota)

Question: For `Nc1nc(O)c2ncn(COC(CO)CO)c2n1` [ganciclovir], which “activity (in words)” value [1] is on record?
Answer: active

Question: Which “CC50 (50% cytotoxic concentration)” value ([2]; DPHt cells, table line of AnPSV) does the source give for `C#C[C@@]1(O)[C@H](O)[C@@H](CO)O[C@H]1n1ccc2c(N)ncnc21` [NITD-008] here?
Answer: 33 ± 9.0 µg/mL (≈ 114 µM)

Question: And the “CC50 (50% cytotoxic concentration)” value ([2]; DPHt cells, table line of BPNV)?
Answer: 37 ± 26 µg/mL (≈ 127 µM)

Question: And the “CC50 (50% cytotoxic concentration)” value ([2]; DPHt cells, table line of GTSV)?
Answer: 55 ± 42 µg/mL (≈ 189 µM)

Question: And the “EC50 (50% effective concentration, CPE reduction assay)” value (GTSV [3])?
Answer: 1.4 ± 0.8 µg/mL (≈ 4.82 µM)

Question: What about the “EC50 (50% effective concentration, CPE reduction assay)” value (BPNV [4]) of the same molecule?
Answer: 0.7 ± 0.4 µg/mL (≈ 2.41 µM)

Question: What about the “EC90 (90% effective concentration, virus yield reduction assay)” value (BPNV [5]) of the same molecule?
Answer: 1.5 µg/mL (≈ 5.17 µM)

Question: What about the “EC50 (50% effective concentration, CPE reduction assay)” value (AnPSV [6]) of the same molecule?
Answer: 0.6 ± 0.3 µg/mL (≈ 2.07 µM)

Question: And the “EC90 (90% effective concentration, virus yield reduction assay)” value (AnPSV [7])?
Answer: 0.76 µg/mL (≈ 2.62 µM)

Question: And the “antiviral activity (in words)” value (AnPNV, BPNV, and GTSV)?
Answer: potent antiviral activity

Question: And the “toxicity (in words)” value [8]?
Answer: toxicity was observed

Question: And the “toxicity (in words)” value [9]?
Answer: toxicity was observed

Question: And the “efficacy (in words)” value (Dengue virus)?
Answer: showed promise

Question: What about the “EC90 (90% effective concentration, virus yield reduction assay)” value (GTSV [10]) of the same molecule?
Answer: 4.8 µg/mL (≈ 16.5 µM)

Question: For `CCC(CC)COC(=O)[C@H](C)N[P@](=O)(OC[C@H]1O[C@@](C#N)(c2ccc3c(N)ncnn23)[C@H](O)[C@@H]1O)Oc1ccccc1` [Remdesivir], which “CC50 (50% cytotoxic concentration)” value [2, 13] is on record?
Answer: 2.3 ± 1.8 µg/mL (≈ 3.82 µM)

Question: What about the CC50 [11] of the same molecule?
Answer: 2.2 ± 1.6 µg/mL (≈ 3.65 µM)

Question: And the EC50 (GTSV [3])?
Answer: < 0.022 µg/mL

Question: And the EC50 (BPNV [4])?
Answer: < 0.022 µg/mL

Question: And the EC90 (BPNV [5])?
Answer: < 0.001 µg/mL

Question: And the EC50 (AnPSV [6])?
Answer: < 0.022 µg/mL

Question: And the EC90 (AnPSV [7])?
Answer: < 0.001 µg/mL

Question: And the “antiviral activity (in words)” value (AnPNV, BPNV, and GTSV)?
Answer: potent antiviral activity

Question: What about the EC90 (GTSV [10]) of the same molecule?
Answer: < 0.001 µg/mL

Question: With `NC(=O)c1ncn([C@@H]2O[C@H](CO)[C@@H](O)[C@H]2O)n1` [Ribavirin] as the molecule, how does the “adverse effect (in words)” value [12] read?
Answer: associated with anemia

Question: And the “CC50 (50% cytotoxic concentration)” value [2, 13]?
Answer: >1000 µg/mL

Question: What about the CC50 [11] of the same molecule?
Answer: > 1000 µg/mL

Question: And the EC50 (GTSV [3])?
Answer: 7.9 ± 3 µg/mL (≈ 32.3 µM)

Question: What about the EC50 (BPNV [4]) of the same molecule?
Answer: 0.9 ± 0.2 µg/mL (≈ 3.69 µM)

Question: What about the EC90 (BPNV [5]; BPNV, concentration reducing virus titer by one Log10) of the same molecule?
Answer: 1.6 µg/mL (≈ 6.55 µM)

Question: What about the EC50 (AnPSV [6]) of the same molecule?
Answer: 2 ± 0.3 µg/mL (≈ 8.19 µM)

Question: And the EC90 (AnPSV [7]; AnPSV, concentration reducing virus titer by one Log10)?
Answer: 12 µg/mL (≈ 49.1 µM)

Question: What about the “antiviral activity (in words)” value (AnPNV, BPNV, and GTSV) of the same molecule?
Answer: potent antiviral activity

Question: And the EC90 (GTSV [10]; GTSV, concentration reducing virus titer by one Log10)?
Answer: 14 µg/mL (≈ 57.3 µM)

Question: Which “CC50 (50% cytotoxic concentration)” value [2, 13] does the source give for `CCOC(=O)c1ccc(OCCC2CCN(c3ccc(C)nn3)CC2)cc1` [Pirodavir, pirodavir] here?
Answer: >10 µg/mL

Question: What about the CC50 [11] of the same molecule?
Answer: 7.3 µg/mL (≈ 19.8 µM)

Question: What about the EC50 (GTSV [3]) of the same molecule?
Answer: 0.86 µg/mL (≈ 2.33 µM)

Question: And the EC50 (BPNV [4])?
Answer: 2.6 µg/mL (≈ 7.04 µM)

Question: What about the EC50 (AnPSV [6]) of the same molecule?
Answer: 1.1 µg/mL (≈ 2.98 µM)

Question: What does the source list for `CC(C)S(=O)(=O)n1c(N)nc2ccc(/C(=N/O)c3ccccc3)cc21` [Enviroximine]?
Answer: EC50 (50% effective concentration, CPE reduction assay) (GTSV [3]): >4.9 µg/mL; EC50 (50% effective concentration, CPE reduction assay) (BPNV [4]): >0.38 µg/mL; EC50 (50% effective concentration, CPE reduction assay) (AnPSV [6]): >0.24 µg/mL

Question: With `Nc1nc2c(ncn2COCCO)c(=O)[nH]1` [Acyclovir] as the molecule, how does the “activity (in words)” value [1] read?
Answer: active

Question: Which results are given for Interferon-alfacon-1 [Infergen]?
Answer: CC50 (50% cytotoxic concentration) [2]: 0.01 µg/mL; EC50 (50% effective concentration, CPE reduction assay) (GTSV [3]): >0.01 µg/mL; EC50 (50% effective concentration, CPE reduction assay) (BPNV [4]): >0.01 µg/mL; EC50 (50% effective concentration, CPE reduction assay) (AnPSV [6]): >0.01 µg/mL

Question: With `NC(=O)c1nc(F)c[nH]c1=O` [Favipiravir] as the molecule, how does the “CC50 (50% cytotoxic concentration)” value [2, 13] read?
Answer: >320 µg/mL

Question: And the CC50 [11]?
Answer: > 320 µg/mL

Question: What about the EC50 (GTSV [3]) of the same molecule?
Answer: > 320 µg/mL

Question: And the EC50 (BPNV [4])?
Answer: > 320 µg/mL

Question: And the EC50 (AnPSV [6])?
Answer: > 320 µg/mL
